{"source": "paper PMC7733455", "about": "“A novel multistage antiplasmodial inhibitor targeting Plasmodium falciparum histone deacetylase 1” (Cell Discovery, 2020)", "key": {"hHDAC1": {"molecular_target": "T1, hHDAC1 (Homo sapiens, UniProt Q13547)", "T1 construct": "purchased BPS Bioscience 50058", "T1 sequence (Q13547 whole entry)": "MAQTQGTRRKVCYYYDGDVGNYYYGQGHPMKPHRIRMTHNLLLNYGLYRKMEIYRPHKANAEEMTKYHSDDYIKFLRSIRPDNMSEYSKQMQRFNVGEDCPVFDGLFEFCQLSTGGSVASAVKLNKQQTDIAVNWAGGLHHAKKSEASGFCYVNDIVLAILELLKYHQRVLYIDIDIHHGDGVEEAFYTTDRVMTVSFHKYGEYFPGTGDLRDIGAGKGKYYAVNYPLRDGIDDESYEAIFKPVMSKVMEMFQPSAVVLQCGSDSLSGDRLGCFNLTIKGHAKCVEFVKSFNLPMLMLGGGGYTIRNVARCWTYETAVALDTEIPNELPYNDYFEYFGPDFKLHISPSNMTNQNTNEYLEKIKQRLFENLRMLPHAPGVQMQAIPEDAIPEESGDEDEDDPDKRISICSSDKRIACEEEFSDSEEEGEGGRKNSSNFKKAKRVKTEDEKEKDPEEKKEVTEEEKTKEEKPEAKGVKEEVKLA", "test": "Human HDAC inhibition assay, hHDAC1", "assay_type": "biochemical", "conditions": "performed only once; read-out: Inhibitory Activity IC50, hHDAC1", "procedure": "(§1) SAHA and suramin were used as positive controls. The tested compounds were dissolved into 20 mM stock in 100% DMSO. […] Ten microliters of trypsin and Ac-peptide substrate/Tris buffer solution were added to start the reaction, followed by a 1-h incubation at room temperature for HDACs 1–3 and 6. Ten microliters of Ac-peptide substrate/Tris buffer solution was added to start the reaction, followed by a 4-h incubation at room temperature and a further 2-h incubation with trypsin solution for HDAC8 and Sirt 2. […] This experiment was performed only once."}, "HepG2 cells": {"system": "HepG2 cells", "test": "In vitro cytotoxicity analysis (CellTiter-Glo), HepG2", "procedure": "(§2) In all, 1% DMSO was used as a negative control. The inhibition of each drug was normalized to that of the DMSO control. EC50 was calculated by GraphPad Prism. Three independent assays with two technical replicates each time were conducted in this experiment."}, "[1]": {"test": "In vitro cytotoxicity analysis (CellTiter-Glo), HepG2", "conditions": "human, HepG2 cells", "procedure": "as §2"}, "[2]": {"system": "P. berghei-ANKA-GFP-luc sporozoites", "test": "In vivo liver-stage parasite inhibition assay", "design": "species or system Plasmodium berghei in BALB/c mice", "procedure": "An in vivo liver-stage parasite inhibition assay was conducted as described previously[68],[69]. Briefly, five female BALB/c mice (6 weeks, 18 g) per group were infected with 5000 P. berghei-ANKA-GFP-luc sporozoites by i.v injection followed immediately by i.v.-administered JX21108 at a single dose of 30 mg/kg or 60 mg/kg (day 0). The β-cyclodextrin was used as a blank control. For fluorescence detection, 3 mg of D-luciferin sodium (Sinochrome BC-220–10) in 100 μL of ddH2O was i.p. injected into each mouse. The fluorescence signals were visualized by an IVIS Lumina series (PerkinElmer) on days 1–4, 6, and 8 after infection. All experimental procedures followed the National Institutes of Health Guide for the Care and Use of Laboratory Animals, as well as the guidelines of the Animal Welfare and Committee of Institut Pasteur of Shanghai, Chinese Academy of Science, IACUC issue No. A2018009."}, "hHDAC3": {"molecular_target": "T2, hHDAC3 (Homo sapiens, UniProt O15379)", "T2 construct": "purchased BPS Bioscience 50003", "T2 sequence (O15379 whole entry)": "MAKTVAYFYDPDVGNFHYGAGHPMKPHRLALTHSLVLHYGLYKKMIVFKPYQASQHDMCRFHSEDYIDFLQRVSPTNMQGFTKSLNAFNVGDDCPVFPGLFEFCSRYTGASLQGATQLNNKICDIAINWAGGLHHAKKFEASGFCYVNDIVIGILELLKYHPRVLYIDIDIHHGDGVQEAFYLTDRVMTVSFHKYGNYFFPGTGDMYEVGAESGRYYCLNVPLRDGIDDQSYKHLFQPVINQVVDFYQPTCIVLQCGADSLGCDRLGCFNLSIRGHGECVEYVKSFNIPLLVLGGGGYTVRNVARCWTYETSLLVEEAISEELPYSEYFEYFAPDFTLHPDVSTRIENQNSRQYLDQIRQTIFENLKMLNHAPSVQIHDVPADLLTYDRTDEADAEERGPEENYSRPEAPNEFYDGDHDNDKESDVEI", "T2 sequence (Q9Y618 395-489 partner limits assumed)": "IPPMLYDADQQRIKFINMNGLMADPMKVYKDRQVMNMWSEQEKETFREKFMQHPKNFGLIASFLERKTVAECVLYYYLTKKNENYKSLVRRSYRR", "test": "Human HDAC inhibition assay, hHDAC3", "assay_type": "biochemical", "conditions": "performed only once; read-out: Inhibitory Activity IC50, hHDAC3", "procedure": "as §1"}, "3D7^HDAC1-TY1": {"system": "3D7^HDAC1-TY1", "test": "Sensitivity of transgenic parasites to JX21108, 3D7^HDAC1-TY1", "assay_type": "cell-based", "conditions": "Plasmodium falciparum, 3D7, 4 h, read-out: EC50 for 3D7^HDAC1-TY1", "procedure": "(§3) Highly synchronized schizont-stage parasites were prepared and treated as described above, with adjustments. […] After washing, parasites were cultured in new CM for another 68 h. Parasite growth was monitored by SYBR Green I staining, as described above. The EC50 was calculated by GraphPad Prism."}, "P. falciparum Dd2": {"system": "P. falciparum Dd2", "test": "3-day SYBR Green I GIA, multidrug-resistant strain Dd2", "assay_type": "cell-based, Plasmodium falciparum", "conditions": "Plasmodium falciparum, 72 h; 3-day SYBR Green I GIA, multidrug-resistant strain Dd2; read-out: Antiplasmodial activity EC50, Dd2", "outline": "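Sorbitol-synchronized ring-stage parasites at 1% parasitemia and 2% hematocrit, cultured 72 h with compounds at 1% DMSO final. Growth read by SYBR Green I staining. EC50 from curve fitting.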"}, "P. falciparum GB4": {"system": "P. falciparum GB4", "test": "3-day SYBR Green I GIA, strain GB4", "assay_type": "cell-based", "conditions": "Plasmodium falciparum; GB4 resistant to chloroquine; read-out: Resistant isolates EC50, GB4", "procedure": "(§4) A 3-day SYBR Green I inhibition EC50 assay was performed as described previously. Briefly, highly synchronized ring-stage parasites by 5% sorbitol (1% parasitemia and 2% hematocrit) were incubated in a 96-well plate with compounds in a total volume of 200 μL. […] The parasites were cultured for 72 h before SYBR Green I staining as described above. The EC50 was calculated by GraphPad Prism. DHA was used as a positive control, and the final concentration of DMSO was 1%."}, "P. falciparum C2A": {"system": "P. falciparum C2A", "test": "3-day SYBR Green I GIA, strain C2A", "assay_type": "cell-based", "conditions": "Plasmodium falciparum, read-out: Resistant isolates EC50, C2A", "procedure": "as §4"}, "[3]": {"test": "In vitro cytotoxicity analysis (CellTiter-Glo), 293T", "conditions": "human, 293T cells, Cytotoxicity EC50, 293T, 72 h, CellTiter-Glo", "procedure": "as §2"}, "293T cells": {"system": "293T cells", "test": "In vitro cytotoxicity analysis (CellTiter-Glo), 293T", "procedure": "as §2"}, "hHDAC6": {"molecular_target": "T3, hHDAC6 (Homo sapiens, UniProt Q9UBN7)", "T3 construct": "purchased BPS Bioscience 50046", "T3 sequence (Q9UBN7 whole entry)": "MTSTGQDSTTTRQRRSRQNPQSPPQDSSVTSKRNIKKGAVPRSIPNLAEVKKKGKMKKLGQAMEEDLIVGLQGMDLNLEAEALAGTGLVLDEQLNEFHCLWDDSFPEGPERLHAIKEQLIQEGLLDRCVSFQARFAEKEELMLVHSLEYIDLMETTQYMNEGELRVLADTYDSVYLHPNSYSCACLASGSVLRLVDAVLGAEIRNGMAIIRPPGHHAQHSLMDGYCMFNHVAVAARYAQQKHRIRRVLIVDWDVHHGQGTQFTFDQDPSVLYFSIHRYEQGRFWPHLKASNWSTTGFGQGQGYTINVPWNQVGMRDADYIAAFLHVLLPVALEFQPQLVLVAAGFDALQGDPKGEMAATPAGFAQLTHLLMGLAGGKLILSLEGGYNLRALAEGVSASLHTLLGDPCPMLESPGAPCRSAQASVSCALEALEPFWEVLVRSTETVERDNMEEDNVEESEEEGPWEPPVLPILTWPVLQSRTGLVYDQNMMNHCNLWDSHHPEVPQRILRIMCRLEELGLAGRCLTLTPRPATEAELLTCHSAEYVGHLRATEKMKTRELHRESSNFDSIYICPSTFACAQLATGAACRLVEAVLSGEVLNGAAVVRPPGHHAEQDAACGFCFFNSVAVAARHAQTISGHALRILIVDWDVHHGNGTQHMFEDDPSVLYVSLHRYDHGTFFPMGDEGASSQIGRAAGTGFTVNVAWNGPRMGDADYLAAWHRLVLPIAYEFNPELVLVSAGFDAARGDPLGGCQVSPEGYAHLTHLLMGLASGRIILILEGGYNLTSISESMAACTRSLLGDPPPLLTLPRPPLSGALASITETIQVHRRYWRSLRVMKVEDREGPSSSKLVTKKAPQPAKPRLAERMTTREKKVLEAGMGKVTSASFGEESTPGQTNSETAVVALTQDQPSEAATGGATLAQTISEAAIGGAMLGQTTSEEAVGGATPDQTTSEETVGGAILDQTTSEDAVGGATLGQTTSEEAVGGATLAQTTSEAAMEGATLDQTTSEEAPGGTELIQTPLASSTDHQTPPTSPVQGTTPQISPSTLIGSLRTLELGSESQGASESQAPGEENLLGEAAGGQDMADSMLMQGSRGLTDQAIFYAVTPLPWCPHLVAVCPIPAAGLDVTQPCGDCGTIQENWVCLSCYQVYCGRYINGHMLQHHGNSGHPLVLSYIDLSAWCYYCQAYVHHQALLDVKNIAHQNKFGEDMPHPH", "test": "Human HDAC inhibition assay, hHDAC6", "assay_type": "biochemical", "conditions": "performed only once; read-out: Inhibitory Activity IC50, hHDAC6", "procedure": "as §1"}, "[4]": {"system": "P. falciparum NF54 stage II gametocytes", "test": "In vitro gametocyte inhibition assay, stage II", "assay_type": "cell-based, Plasmodium falciparum", "conditions": "NF54 luciferase line, 48 h exposure", "procedure": "To test the activities of JX21108 against different gametocyte stages, the P. falciparum producer NF54^p230p-luc was utilized, as described previously. […] Luciferase intensity based on luciferase expression was detected as described above. The EC50 was calculated by GraphPad Prism. DMSO (1%) was used as a negative control."}, "[5]": {"test": "Liver microsome metabolism assay, rat", "assay_type": "in vitro ADME", "conditions": "rat liver microsomes", "procedure": "Liver microsomes (0.5 mg/mL) were purchased from Corning. Ketanserin was selected as a positive control. The tested compounds were first dissolved in DMSO to a concentration of 10 mM and then diluted to 0.5 mM with acetonitrile. Liver microsome buffer was used to dilute the compounds to a working concentration of 1.5 µM, 30 µL of which was mixed with 15 µL of 6 mM NADPH at 37 °C. At 0, 5, 15, 30, and 45 min after incubation, 135 µL of acetonitrile was added to quench the reaction. The mixture was shaken on a vortex mixer (IKA, MTS 2/4) for 10 min at 600 rpm/min and then centrifuged at 5594× g for 15 min (Thermo Multifuge×3R). The supernatant was diluted 1:1 into distilled water, and analyzed by LC-MS/MS."}, "3D7^HDA1-TY1": {"system": "3D7^HDA1-TY1", "test": "Sensitivity of transgenic parasites to JX21108, 3D7^HDA1-TY1", "assay_type": "cell-based", "conditions": "Plasmodium falciparum, 3D7, 4 h, read-out: EC50 for 3D7^HDA1-TY1", "procedure": "as §3"}, "3D7^HDA1-glmS": {"system": "3D7^HDA1-glmS", "test": "Sensitivity of transgenic parasites to JX21108, 3D7^HDA1-glmS", "assay_type": "cell-based", "conditions": "Plasmodium falciparum, 3D7, 4 h, read-out: EC50 for 3D7^HDA1-glmS", "procedure": "as §3"}}, "note": "“And” between values parts separate entries of the source, which are not always exact repeats. Equal values may be shown once.", "data": [{"smiles": "Cl.Cn1cc(CN2CCC3(CCN(c4ncc(C(=O)NO)cn4)C3)C2)c2cc(C#N)ccc21", "note": "(centres unmarked) [JX21108]", "values": [{"measurement": "IC50", "setting": "hHDAC1", "result": 1.8, "unit": "nM"}, {"measurement": "Selectivity index for HepG2 (EC50 HepG2/EC50 3D7)", "setting": "HepG2 cells", "result": "~ 1060 and 1069 and 1060"}, {"measurement": "EC50 at 72 h", "setting": "[1]", "result": "3820 ± 145", "unit": "nM"}, {"measurement": "effect on liver infection or subsequent blood-stage P. berghei infection", "setting": "[2]; single 30 mg/kg dose i.v.", "result": "did not produce significant effects"}, {"measurement": "liver infection (bioluminescence)", "setting": "[2]; single 60 mg/kg dose i.v., 2 dpi", "result": "did not show signs of liver infection"}, {"measurement": "blood-stage infection", "setting": "[2]; single 60 mg/kg dose i.v., until 8 dpi", "result": "nor did the treated mice show any blood-stage infection"}, {"measurement": "IC50", "setting": "hHDAC3", "result": 19, "unit": "nM"}, {"measurement": "EC50", "setting": "3D7^HDAC1-TY1", "result": "114 ± 26.5", "unit": "nM"}, {"measurement": "EC50", "setting": "P. falciparum Dd2", "result": 4, "unit": "nM"}, {"measurement": "EC50", "setting": "P. falciparum GB4", "result": "2.4 ± 0.6", "unit": "nM"}, {"measurement": "EC50", "setting": "P. falciparum C2A", "result": "2.9 ± 0.7", "unit": "nM"}, {"measurement": "EC50 at 72 h", "setting": "[3]", "result": "1190 ± 233", "unit": "nM"}, {"measurement": "Selectivity index for 293T (EC50 293T/EC50 3D7)", "setting": "293T cells", "result": "~ 331 and 334 and 331"}, {"measurement": "IC50", "setting": "hHDAC6", "result": 66, "unit": "nM"}, {"measurement": "EC50", "setting": "[4]", "result": "38.8 ± 17.8", "unit": "nM"}, {"measurement": "EC50", "setting": "[4]; Plasmodium falciparum, NF54, 48 h", "result": "38.8 ± 17.8", "unit": "nM"}, {"measurement": "CLint scaled at 1 µM", "setting": "[5]; read-out: CL in liver microsomes", "result": 196, "unit": "mL/min/kg"}, {"measurement": "half-life at 1 µM", "setting": "[5]; read-out: T1/2 in liver microsomes", "result": 12.7, "unit": "min"}, {"measurement": "EC50", "setting": "3D7^HDA1-TY1", "result": "330 ± 57", "unit": "nM"}, {"measurement": "EC50", "setting": "3D7^HDA1-glmS", "result": "210 ± 25", "unit": "nM"}]}]}
